From ChEMBL document CHEMBL1152992, “RmtC 16S rRNA methyltransferase in Australia” (2008) come the findings set out here.

Converted amounts (≈) assume the structure as drawn.

As a reminder, the MIC is the smallest concentration in the dilution series that meets the test's criterion for growth inhibition. Read a low MIC as a more susceptible organism.

This test has as its system Proteus mirabilis. In words: Antimicrobial activity against Proteus mirabilis JIE273 expressing 16S rRNA methyltransferase RmtC. Type of test: functional.
Turning to `CC1(C)S[C@@H]2[C@H](NC(=O)[C@H](N)c3ccccc3)C(=O)N2[C@H]1C(=O)O` [AMPICILLIN], the minimal inhibitory concentration (MIC) was greater than 16 µg/mL. As for `C[C@H]1[C@H](NC(=O)/C(=N\OC(C)(C)C(=O)O)c2csc(N)n2)C(=O)N1S(=O)(=O)O` [AZTREONAM], the figure is greater than 16 µg/mL; as for `CO/N=C(\C(=O)N[C@@H]1C(=O)N2C(C(=O)O)=C(COC(C)=O)CS[C@H]12)c1csc(N)n1` [CEFOTAXIME], greater than 32 µg/mL; as for `CO[C@@]1(NC(=O)Cc2cccs2)C(=O)N2C(C(=O)O)=C(COC(N)=O)CS[C@@H]21` [CEFOXITIN], no more than 4 µg/mL.

For `CC(C)(O/N=C(\C(=O)N[C@@H]1C(=O)N2C(C(=O)[O-])=C(C[n+]3ccccc3)CS[C@H]12)c1csc(N)n1)C(=O)O` [CEFTAZIDIME], the MIC is greater than 16 µg/mL. In turn, `CO/N=C(\C(=O)N[C@@H]1C(=O)N2C(C(=O)O)=C(CSc3nc(=O)c(O)nn3C)CS[C@H]12)c1csc(N)n1` [CEFTRIAXONE] had a minimal inhibitory concentration (MIC) greater than 32 µg/mL.

As to `CO/N=C(\C(=O)N[C@@H]1C(=O)N2C(C(=O)O)=C(COC(N)=O)CS[C@H]12)c1ccco1` [CEFUROXIME], the MIC was greater than 16 µg/mL.

In turn, `CC(=O)OCC1=C(C(=O)O)N2C(=O)[C@@H](NC(=O)Cc3cccs3)[C@H]2SC1` [CEPHALOTHIN] displayed an MIC greater than 16 µg/mL.

Regarding `O=C(O)c1cn(C2CC2)c2cc(N3CCNCC3)c(F)cc2c1=O` [CIPROFLOXACIN], the MIC was greater than 2 µg/mL. The result for `C[C@@H](O)[C@H]1C(=O)N2C(C(=O)O)=C(SCCNC=N)C[C@H]12` [IMIPENEM ANHYDROUS] reads no more than 2 µg/mL. As for `C[C@H]1COc2c(N3CCN(C)CC3)c(F)cc3c(=O)c(C(=O)O)cn1c23.C[C@H]1COc2c(N3CCN(C)CC3)c(F)cc3c(=O)c(C(=O)O)cn1c23.O` [LEVOFLOXACIN], the figure is greater than 4 µg/mL. The result for `CCn1cc(C(=O)O)c(=O)c2ccc(C)nc21` [NALIDIXIC ACID] reads greater than 32 µg/mL. Molecule `CC1(C)S[C@@H]2[C@H](NC(=O)[C@H](C(=O)O)c3ccsc3)C(=O)N2[C@H]1C(=O)O` [TICARCILLIN] showed an MIC of 32 µg/mL (≈ 83.2 µM).
